Results as given in patent US12377110B2, “Fospropofol methods and compositions” (Epalex Corporation, priority 2019, dated 2025).

What was measured:
[1] = Study A16 Part 1: PK of single ascending oral doses of fospropofol disodium (200 to 2000 mg), fasted healthy adults; format: in vivo, human; details: for Fospropofol CL/F: mean
Protocol: Part 1 of Study A16 was a double-blind, randomized, placebo-controlled study to investigate the safety-tolerability and PK of oral administration of single ascending doses of fospropofol disodium to healthy adult male and female volunteers.
Subjects were healthy adults (age 18-55 years inclusive, BMI 18-29.9 kg/m^2). Separate cohorts of 12 subjects each were randomized to receive fospropofol disodium at doses of 200, 400, 800, 1000, 1200, 1600, or 2000 mg (n=10 per cohort) or matching placebo (n=2 per cohort).
Subjects were admitted to the clinical unit for an overnight fast (Day −1), administered study drug on Day 1, and remained in the clinical unit until Day 2.
Fospropofol disodium was formulated as powder in an HPMC capsule, each capsule containing 200 mg of fospropofol disodium (weight adjusted for water content). Placebo was administered as an appropriate number of matching capsules.
Based on PK results from the early cohorts, sampling times were optimized beginning with Cohort 3 (800 mg) to preclose, 5, 10, 15, 20, 25, 30, 37, and 45, minutes and 1, 2, 4, 6, and 9 hours after closing.

[2] = Study No. 15-4 toxicokinetics of fospropofol and propofol in plasma; format: in vivo, Beagle dogs; details: for Tmax: read-out: Fospropofol Tmax; for AUC(0-t): read-out: Fospropofol AUC0-6 hr
Protocol: The purpose of Study No. 15-4 (GLP) was to determine the potential toxicity of fospropofol in Beagle dogs when administered once daily by oral gavage for 14 days. […] Because the treatment-related clinical observations (consistent with the expected transient sedative actions of fospropofol) and effects on hematology and clinical chemistry parameters were considered nonadverse, the NOAEL was determined to be 160 mg/kg/day (3200 mg/m^2/day).

[3] = Study No. 15-3 toxicokinetics of fospropofol and propofol in plasma; format: in vivo, Sprague-Dawley rats; details: for AUC(0-t) / Cmax / Tmax: Sprague-Dawley, rat, plasma, po, oral gavage fospropofol disodium; for AUC(0-t): read-out: Fospropofol AUC0-6 hr; for Cmax: read-out: Fospropofol Cmax; for Tmax: read-out: Fospropofol Tmax
Protocol: The purpose of Study No. 15-3 (GLP) was to determine the potential toxicity of fospropofol in Sprague-Dawley rats when administered once daily by oral gavage for 14 days. […] The cause of death for the three 250 mg/kg/day group main study females found dead could not be determined, but was considered related to the pharmacodynamic effects of fospropofol, based on the time of death relative to the time of close administration, and the clinical signs recorded before death. Clinical observations during the closing period for these animals included labored breathing, prostrate, splayed hindlimbs, uncoordinated movement, decreased activity, and eyes closed.

[4] = subjects 301-312 (800 mg cohort)
[5] = female, beagle, dog, plasma, po, 50 mg/kg, oral gavage fospropofol disodium, Female, 50 mg/kg, Day 1
[6] = female, beagle, dog, plasma, po, 50 mg/kg, oral gavage fospropofol disodium, Female, 50 mg/kg, Day 14
[7] = female, beagle, dog, plasma, po, 100 mg/kg, oral gavage fospropofol disodium, Female, 100 mg/kg, Day 1
[8] = female, beagle, dog, plasma, po, 100 mg/kg, oral gavage fospropofol disodium, Female, 100 mg/kg, Day 14
[9] = female, beagle, dog, plasma, po, 160 mg/kg, oral gavage fospropofol disodium, Female, 160 mg/kg, Day 1
[10] = female, beagle, dog, plasma, po, 160 mg/kg, oral gavage fospropofol disodium, Female, 160 mg/kg, Day 14
[11] = male, beagle, dog, plasma, po, 50 mg/kg, oral gavage fospropofol disodium, Male, 50 mg/kg, Day 1
[12] = male, beagle, dog, plasma, po, 50 mg/kg, oral gavage fospropofol disodium, Male, 50 mg/kg, Day 14
[13] = male, beagle, dog, plasma, po, 100 mg/kg, oral gavage fospropofol disodium, Male, 100 mg/kg, Day 1
[14] = male, beagle, dog, plasma, po, 100 mg/kg, oral gavage fospropofol disodium, Male, 100 mg/kg, Day 14
[15] = male, beagle, dog, plasma, po, 160 mg/kg, oral gavage fospropofol disodium, Male, 160 mg/kg, Day 1
[16] = male, beagle, dog, plasma, po, 160 mg/kg, oral gavage fospropofol disodium, Male, 160 mg/kg, Day 14
[17] = female, 50 mg/kg, Female, 50 mg/kg, Day 1
[18] = female, 50 mg/kg, Female, 50 mg/kg, Day 14
[19] = female, 100 mg/kg, Female, 100 mg/kg, Day 1
[20] = female, 100 mg/kg, Female, 100 mg/kg, Day 14
[21] = female, 250 mg/kg, Female, 250 mg/kg, Day 1
[22] = female, 250 mg/kg, Female, 250 mg/kg, Day 14
[23] = male, 50 mg/kg, Male, 50 mg/kg, Day 1
[24] = male, 50 mg/kg, Male, 50 mg/kg, Day 14
[25] = male, 100 mg/kg, Male, 100 mg/kg, Day 1
[26] = male, 100 mg/kg, Male, 100 mg/kg, Day 14
[27] = male, 250 mg/kg, Male, 250 mg/kg, Day 1
[28] = male, 250 mg/kg, Male, 250 mg/kg, Day 14

For `CC(C)c1cccc(C(C)C)c1OCOP(=O)(O)O` [fospropofol, (2,6-diisopropylphenoxy)methyl dihydrogen phosphate], the “Fospropofol CL/F” value ([1]; oral fospropofol disodium 1200 mg) was 288 L/h, the “Fospropofol CL/F” value ([1]; oral fospropofol disodium 1600 mg) was 270 L/h and the “Fospropofol CL/F” value ([1]; oral fospropofol disodium 2000 mg) was 204 L/h. The “Fospropofol AUC1 CV (%)” value [1, 4] was 23.6%, the “Fospropofol AUC2 CV (%)” value [1, 4] was 26.0% and the “Fospropofol AUC4 CV (%)” value [1, 4] was 27.2%. The “Fospropofol Cmax CV (%)” value [1, 4] was 30.7%, the “Fospropofol Tmax CV (%)” value [1, 4] was 29.2% and the “Sex differences in fospropofol Cmax or AUC0-6h” value ([2]; 50, 100, and 160 mg/kg/day for 14 days) was “no clear sex differences”. The Tmax ([2]; Beagle, dog, plasma, oral, range over all groups) was 5 to 60 min, the “Increase of fospropofol Cmax and AUC0-6hr with dose” value ([2]; Days 1 and 14, males and females (except females on Day 14)) was “less than close proportional” and the half-life ([2]; both sexes, Beagle, dog, plasma, oral, males and females, read-out: Fospropofol apparent individual terminal half-lives) was 18 to 36 min. It also gave a Cmax [2, 5] of 3680 ng/mL, an AUC(0-t) [2, 5] of 4710 ng·h/mL and a Tmax [2, 5] of 30 to 60 min. The Cmax [2, 6] was 3770 ng/mL, the AUC(0-t) [2, 6] was 5730 ng·h/mL and the Tmax [2, 6] was 30 to 60 min. It also gave a Cmax [2, 7] of 10100 ng/mL, an AUC(0-t) [2, 7] of 11900 ng·h/mL and a Tmax [2, 7] of 15 to 30 min. It also gave a Cmax [2, 8] of 9310 ng/mL, an AUC(0-t) [2, 8] of 15100 ng·h/mL and a Tmax [2, 8] of 30 to 60 min. It also gave a Cmax [2, 9] of 7380 ng/mL, an AUC(0-t) [2, 9] of 11200 ng·h/mL and a Tmax [2, 9] of 15 to 60 min. The Cmax [2, 10] was 12700 ng/mL, the AUC(0-t) [2, 10] was 16000 ng·h/mL and the Tmax [2, 10] was 15 to 60 min. The Cmax [2, 11] was 5130 ng/mL, the AUC(0-t) [2, 11] was 7710 ng·h/mL and the Tmax [2, 11] was 30 to 60 min. It also gave a Cmax [2, 12] of 3300 ng/mL, an AUC(0-t) [2, 12] of 4860 ng·h/mL and a Tmax [2, 12] of 30 to 60 min. For the same compound, the Cmax [2, 13] was 9480 ng/mL, the AUC(0-t) [2, 13] was 11700 ng·h/mL and the Tmax [2, 13] was 30 to 60 min. The Cmax [2, 14] was 6340 ng/mL, the AUC(0-t) [2, 14] was 6340 ng·h/mL and the Tmax [2, 14] was 15 to 60 min. It also gave a Cmax [2, 15] of 10000 ng/mL, an AUC(0-t) [2, 15] of 13500 ng·h/mL and a Tmax [2, 15] of 15 to 60 min. It also gave a Cmax [2, 16] of 6970 ng/mL, an AUC(0-t) [2, 16] of 9000 ng·h/mL and a Tmax [2, 16] of 4.98 to 60 min. The “Increase of fospropofol Cmax and AUC0-6hr with dose” value ([3]; 50, 100, and 250 mg/kg/day, Day 1 and Day 14) was “greater than close-proportional”, the AUC(0-t) [3, 17] was 166 ng·h/mL and the Cmax [3, 17] was 582 ng/mL. For the same compound, the Tmax [3, 17] was 4.98 min, the AUC(0-t) [3, 18] was 160 ng·h/mL and the Cmax [3, 18] was 341 ng/mL. For the same compound, the Tmax [3, 18] was 15 min, the AUC(0-t) [3, 19] was 827 ng·h/mL and the Cmax [3, 19] was 1630 ng/mL. The Tmax [3, 19] was 4.98 min, the AUC(0-t) [3, 20] was 1170 ng·h/mL and the Cmax [3, 20] was 2560 ng/mL. The Tmax [3, 20] was 4.98 min, the AUC(0-t) [3, 21] was 4630 ng·h/mL and the Cmax [3, 21] was 8400 ng/mL. It also gave a Tmax [3, 21] of 4.98 min, an AUC(0-t) [3, 22] of 3810 ng·h/mL and a Cmax [3, 22] of 8440 ng/mL. For the same compound, the Tmax [3, 22] was 4.98 min, the “Fospropofol AUC0-6hr following repeated administration” value ([3]; male and female rats) was “did not appear to change” and the AUC(0-t) [3, 23] was 97.1 ng·h/mL. The Cmax [3, 23] was 178 ng/mL, the Tmax [3, 23] was 4.98 min and the AUC(0-t) [3, 24] was 96.9 ng·h/mL. The Cmax [3, 24] was 149 ng/mL, the Tmax [3, 24] was 4.98 min and the AUC(0-t) [3, 25] was 386 ng·h/mL. For the same compound, the Cmax [3, 25] was 930 ng/mL, the Tmax [3, 25] was 4.98 min and the AUC(0-t) [3, 26] was 370 ng·h/mL. The Cmax [3, 26] was 1360 ng/mL, the Tmax [3, 26] was 4.98 min and the AUC(0-t) [3, 27] was 3720 ng·h/mL. It also gave a Cmax [3, 27] of 8510 ng/mL, a Tmax [3, 27] of 4.98 min and an AUC(0-t) [3, 28] of 2130 ng·h/mL. For the same compound, the Cmax [3, 28] was 5020 ng/mL, the Tmax [3, 28] was 4.98 min and the “Dependence of systemic exposure on sex” value ([3]; rats, 14 days oral gavage fospropofol disodium) was “greater exposure in females”.
